Data: patent US20200231638A1, “STABILIZED ANTI-MICROBIAL PEPTIDES” (priority 2015, published 2020)
Bridge positions count the residues as written; N and C are the ends. Square brackets hold non-standard residues; d marks the D form. Peptide text beside a SMILES is read from it. R8 = C=CCCCCCC[C@@](C)(N)C(=O)O; S5 = C=CCCC[C@](C)(N)C(=O)O; Nle = CCCC[C@H](N)C(=O)O

How the values were obtained:
[1] = test system: E. coli; type: cell-based, Escherichia coli
Summary of the method: (§1)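 MIC read as the minimum peptide concentration showing no visible growth after 20-24 hours at 37° C. Cultures were grown overnight, then regrown several hours before testing. Medium was MHB refined by anion exchange to strip polyanions; final inoculum 5×10^5 CFU/ml.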

[2] = test system: B. cereus; type: cell-based, Bacillus cereus
Summary of the method: as §1

[3] = test system: S. aureus; type: cell-based, Staphylococcus aureus
Summary of the method: as §1

[4] = test system: P. aeruginosa; type: cell-based, Pseudomonas aeruginosa
Summary of the method: as §1

[5] = test system: human red blood cells; type: cell-based; conditions: red cells of human, 1 h, 25
Summary of the method: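 Washed human RBCs as 1% (v/v) suspension in phosphate-buffered saline incubated 1 h at 37° C with serially diluted peptides. Hemoglobin release in supernatant measured spectrophotometrically (570 nm), % hemolysis relative to untreated and 1% Triton-X100 controls; MHC defined as concentration giving less than 1% release.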

| SMILES | MIC E. coli [1] [µg/mL] | MIC B. cereus [2] [µg/mL] | MIC S. aureus [3] [µg/mL] | MIC P. aeruginosa [4] [µg/mL] | % Hemolysis at 25 μg/ml [5] [%] |
| --- | --- | --- | --- | --- | --- |
| CC[C@H](C)[C@H](NC(=O)CN)C(=O)NCC(=O)N[C@@H](CCCCN)C(=O)N[C@@H](Cc1ccccc1)C(=O)N[C@@H](CC(C)C)C(=O)N[C@@H](Cc1c[nH]cn1)C(=O)N[C@@H](CO)C(=O)N[C@@H](C)C(=O)N[C@@H](CCCCN)C(=O)N[C@@H](CCCCN)C(=O)N[C@@H](Cc1ccccc1)C(=O)NCC(=O)N[C@]1(C)CCCCCCC=CCCC[C@@](C)(C(=O)N[C@@H](CC(N)=O)C(=O)N[C@@H](CO)C(N)=O)NC(=O)[C@H]([C@@H](C)CC)NC(=O)[C@H](CCC(=O)O)NC(=O)CNC(=O)[C@H](C(C)C)NC(=O)[C@H](Cc2ccccc2)NC(=O)[C@H](C)NC1=O [Mag(i + 7)13] (H-GIGKFLHSAKKFG[R8]AFVGEI[S5]NS-NH2; staple 14-21 (inferred); N-terminus and C-terminus assumed) | 1.6 | 3.1 | 12.5 | 6.2 | 63.6 |
| CCCC[C@H](NC(=O)[C@]1(C)CCCC=CCCC[C@](C)(NC(=O)[C@H](C)NC(=O)[C@H](CCCCN)NC(=O)CNC(=O)[C@H](Cc2ccccc2)NC(=O)[C@H](CCCCN)NC(=O)[C@H](CCCCN)NC(=O)[C@H](C)NC(=O)[C@H](CO)NC(=O)[C@H](Cc2c[nH]cn2)NC(=O)[C@H](CC(C)C)NC(=O)[C@H](Cc2ccccc2)NC(=O)[C@H](CCCCN)NC(=O)CNC(=O)[C@@H](NC(=O)CN)[C@@H](C)CC)C(=O)N[C@@H](C(C)C)C(=O)N[C@@H](CCC(=O)O)C(=O)N[C@@H](CCC(=O)O)C(=O)N1)C(=O)N[C@@H](CC(N)=O)C(=O)N[C@@H](CO)C(N)=O [Mag(i + 4)15(G18E), GIGKFLHSAKKFGKAXVEEXBNS] (H-GIGKFLHSAKKFGKA[S5]VEE[S5][Nle]NS-NH2; staple 16-20) | 3.1 | 6.2 | 12.5 | 12.5 | 4.8 |
| CCCC[C@H](NC(=O)[C@]1(C)CCCC=CCCC[C@](C)(NC(=O)[C@H](C)NC(=O)[C@H](CCCCN)NC(=O)CNC(=O)[C@H](Cc2ccccc2)NC(=O)[C@H](CCCCN)NC(=O)[C@H](CCCCN)NC(=O)[C@H](CCC(=O)O)NC(=O)[C@H](CO)NC(=O)[C@H](Cc2c[nH]cn2)NC(=O)[C@H](CC(C)C)NC(=O)[C@H](Cc2ccccc2)NC(=O)[C@H](CCCCN)NC(=O)CNC(=O)[C@@H](NC(=O)CN)[C@@H](C)CC)C(=O)N[C@@H](C(C)C)C(=O)NCC(=O)N[C@@H](CCC(=O)O)C(=O)N1)C(=O)N[C@@H](CC(N)=O)C(=O)N[C@@H](CO)C(N)=O [Mag(i + 4)15(A9E), GIGKFLHSEKKFGKAXVGEXBNS] (H-GIGKFLHSEKKFGKA[S5]VGE[S5][Nle]NS-NH2; staple 16-20) | 50 | >50 | >50 | >50 | 0.6 |
| CCCC[C@H](NC(=O)[C@@H](NC(=O)[C@H](CCC(=O)O)NC(=O)CNC(=O)[C@@H](NC(=O)[C@H](Cc1ccccc1)NC(=O)[C@H](C)NC(=O)[C@H](CCCCN)NC(=O)CNC(=O)[C@H](Cc1ccccc1)NC(=O)[C@H](CCCCN)NC(=O)[C@]1(C)CCCC=CCCC[C@](C)(NC(=O)[C@H](Cc2ccccc2)NC(=O)[C@H](CCCCN)NC(=O)CNC(=O)[C@@H](NC(=O)CN)[C@@H](C)CC)C(=O)N[C@@H](Cc2c[nH]cn2)C(=O)N[C@@H](CO)C(=O)N[C@@H](C)C(=O)N1)C(C)C)[C@@H](C)CC)C(=O)N[C@@H](CC(N)=O)C(=O)N[C@@H](CO)C(N)=O [Mag(i + 4)5] (H-GIGKF[S5]HSA[S5]KFGKAFVGEI[Nle]NS-NH2; staple 6-10) | 12.5 | 12.5 | 25 | 50 | 13.3 |
